Six compounds from PubChem BioAssay AID1259407 (Chemical Carcinogenesis Research Information System (CCRIS), 2018) can be followed below.

Active and inactive are the calls of the source. No rule for the calls is given here.

In this series the test system is CCRIS mutagenicity, Ames/micronucleus/aberration tests. The series can be described thus: CCRIS mutagenicity studies.
Setting [1] is: Test System: AMES SALMONELLA TYPHIMURIUM, Strain/Indicator: TA98, Metabolic Activation: NONE, Method: PREINCUBATION
Setting [2] is: Test System: AMES SALMONELLA TYPHIMURIUM, Strain/Indicator: TA100, Metabolic Activation: NONE, Method: PREINCUBATION
[3] abbreviates: Test System: AMES SALMONELLA TYPHIMURIUM, Strain/Indicator: TA1535, Metabolic Activation: NONE, Method: PREINCUBATION
[4] abbreviates: Test System: AMES SALMONELLA TYPHIMURIUM, Strain/Indicator: TA1537, Metabolic Activation: NONE, Method: PREINCUBATION

Turning to `FC(F)C(F)(F)F`, the mutagenic call is “inactive; negative” (Test System: AMES SALMONELLA TYPHIMURIUM, Strain/Indicator: TA98, Metabolic Activation: NONE, Method: STANDARD PLATE); “inactive; negative” (Test System: AMES SALMONELLA TYPHIMURIUM, Strain/Indicator: TA98, Metabolic Activation: RAT, LIVER, S-9, AROCLOR 1254, Method: STANDARD PLATE); “inactive; negative” (Test System: AMES SALMONELLA TYPHIMURIUM, Strain/Indicator: TA100, Metabolic Activation: NONE, Method: STANDARD PLATE); “inactive; negative” (Test System: AMES SALMONELLA TYPHIMURIUM, Strain/Indicator: TA100, Metabolic Activation: RAT, LIVER, S-9, AROCLOR 1254, Method: STANDARD PLATE); “inactive; negative” (Test System: AMES SALMONELLA TYPHIMURIUM, Strain/Indicator: TA1535, Metabolic Activation: NONE, Method: STANDARD PLATE); “inactive; negative” (Test System: AMES SALMONELLA TYPHIMURIUM, Strain/Indicator: TA1535, Metabolic Activation: RAT, LIVER, S-9, AROCLOR 1254, Method: STANDARD PLATE). Also, the mutagenic call is “inactive; negative” (Test System: AMES SALMONELLA TYPHIMURIUM, Strain/Indicator: TA1537, Metabolic Activation: NONE, Method: STANDARD PLATE); “inactive; negative” (Test System: AMES SALMONELLA TYPHIMURIUM, Strain/Indicator: TA1537, Metabolic Activation: RAT, LIVER, S-9, AROCLOR 1254, Method: STANDARD PLATE); “inactive; negative” (Test System: AMES SALMONELLA TYPHIMURIUM, Strain/Indicator: TA1538, Metabolic Activation: NONE, Method: STANDARD PLATE); “inactive; negative” (Test System: AMES SALMONELLA TYPHIMURIUM, Strain/Indicator: TA1538, Metabolic Activation: RAT, LIVER, S-9, AROCLOR 1254, Method: STANDARD PLATE); “inactive; negative” (Test System: E. COLI, Strain/Indicator: WP2 UVRA, Metabolic Activation: NONE, Method: STANDARD PLATE); “inactive; negative” (Test System: E. COLI, Strain/Indicator: WP2 UVRA, Metabolic Activation: RAT, LIVER, S-9, AROCLOR 1254, Method: STANDARD PLATE).

Take `CCOC(=O)[C@H](CCc1ccccc1)N[C@@H](C)C(=O)N(CC(=O)O)C1Cc2ccccc2C1`: the mutagenic call runs as follows: (Test System: AMES SALMONELLA TYPHIMURIUM, Strain/Indicator: TA98, Metabolic Activation: NONE) “inactive; negative”; (Test System: AMES SALMONELLA TYPHIMURIUM, Strain/Indicator: TA98, Metabolic Activation: S-9) “inactive; negative”; (Test System: AMES SALMONELLA TYPHIMURIUM, Strain/Indicator: TA100, Metabolic Activation: NONE) “inactive; negative”; (Test System: AMES SALMONELLA TYPHIMURIUM, Strain/Indicator: TA100, Metabolic Activation: S-9) “inactive; negative”; (Test System: AMES SALMONELLA TYPHIMURIUM, Strain/Indicator: TA1535, Metabolic Activation: NONE) “inactive; negative”; (Test System: AMES SALMONELLA TYPHIMURIUM, Strain/Indicator: TA1535, Metabolic Activation: S-9) “inactive; negative”. Moreover, the mutagenic call was “inactive; negative” (Test System: AMES SALMONELLA TYPHIMURIUM, Strain/Indicator: TA1537, Metabolic Activation: NONE); “inactive; negative” (Test System: AMES SALMONELLA TYPHIMURIUM, Strain/Indicator: TA1537, Metabolic Activation: S-9); “inactive; negative” (Test System: E. COLI, Strain/Indicator: WP2 UVRA, Metabolic Activation: NONE); “inactive; negative” (Test System: E. COLI, Strain/Indicator: WP2 UVRA, Metabolic Activation: S-9).

Take `OCC(CO)(CBr)CBr`: the mutagenic call by setting is: (End Point: IN VITRO CHROMOSOMAL ABERRATIONS, Test System: CHINESE HAMSTER OVARY CELLS, Metabolic Activation: NONE) “inactive; negative”; (End Point: IN VITRO CHROMOSOMAL ABERRATIONS, Test System: CHINESE HAMSTER OVARY CELLS, Metabolic Activation: RAT, LIVER, S-9, AROCLOR 1254) “active; positive”; (Test System: AMES SALMONELLA TYPHIMURIUM, Strain/Indicator: TA98, Metabolic Activation: HAMSTER, LIVER, S-9, AROCLOR 1254 (10%), Method: PREINCUBATION) “inactive; negative”; (Test System: AMES SALMONELLA TYPHIMURIUM, Strain/Indicator: TA98, Metabolic Activation: HAMSTER, LIVER, S-9, AROCLOR 1254 (30%), Method: PREINCUBATION) “inactive; negative”; under setting [1], “inactive; negative”; (Test System: AMES SALMONELLA TYPHIMURIUM, Strain/Indicator: TA98, Metabolic Activation: RAT, LIVER, S-9, AROCLOR 1254 (10%), Method: PREINCUBATION) “inactive; negative”. Moreover, the mutagenic call by setting is: (Test System: AMES SALMONELLA TYPHIMURIUM, Strain/Indicator: TA98, Metabolic Activation: RAT, LIVER, S-9, AROCLOR 1254 (30%), Method: PREINCUBATION) “inactive; negative”; (Test System: AMES SALMONELLA TYPHIMURIUM, Strain/Indicator: TA100, Metabolic Activation: HAMSTER, LIVER, S-9, AROCLOR 1254 (10%), Method: PREINCUBATION) “inactive; negative”; (Test System: AMES SALMONELLA TYPHIMURIUM, Strain/Indicator: TA100, Metabolic Activation: HAMSTER, LIVER, S-9, AROCLOR 1254 (30%), Method: PREINCUBATION) “active; positive”; under setting [2], “inactive; negative”; (Test System: AMES SALMONELLA TYPHIMURIUM, Strain/Indicator: TA100, Metabolic Activation: RAT, LIVER, S-9, AROCLOR 1254 (10%), Method: PREINCUBATION) “inactive; negative”; (Test System: AMES SALMONELLA TYPHIMURIUM, Strain/Indicator: TA100, Metabolic Activation: RAT, LIVER, S-9, AROCLOR 1254 (30%), Method: PREINCUBATION) “inactive; negative”. In addition, the mutagenic call was “inactive; negative” (Test System: AMES SALMONELLA TYPHIMURIUM, Strain/Indicator: TA1535, Metabolic Activation: HAMSTER, LIVER, S-9, AROCLOR 1254 (10%), Method: PREINCUBATION); “inactive; negative” under setting [3]; “inactive; negative” (Test System: AMES SALMONELLA TYPHIMURIUM, Strain/Indicator: TA1535, Metabolic Activation: RAT, LIVER, S-9, AROCLOR 1254 (10%), Method: PREINCUBATION); “inactive; negative” (Test System: AMES SALMONELLA TYPHIMURIUM, Strain/Indicator: TA1537, Metabolic Activation: HAMSTER, LIVER, S-9, AROCLOR 1254 (10%), Method: PREINCUBATION); “inactive; negative” under setting [4]; “inactive; negative” (Test System: AMES SALMONELLA TYPHIMURIUM, Strain/Indicator: TA1537, Metabolic Activation: RAT, LIVER, S-9, AROCLOR 1254 (10%), Method: PREINCUBATION).

In the case of `CCOc1ccccc1[N+](=O)[O-]`, the mutagenic call is “inactive; negative” under setting [1]; “active; positive” under setting [2]; “active; positive” under setting [3]; “inactive; negative” under setting [4]; “inactive; negative” (Test System: AMES SALMONELLA TYPHIMURIUM, Strain/Indicator: TA1538, Metabolic Activation: NONE, Method: PREINCUBATION).

With `Nc1cc([N+](=O)[O-])cc([N+](=O)[O-])c1CO`, the mutagenic call is “inactive; negative” (End Point: In vitro chromosomal aberrations, Test System: V79 Chinese hamster fibroblasts, Metabolic Activation: None); “active; positive” (Test System: Ames Salmonella typhimurium, Strain/Indicator: TA98, Metabolic Activation: None, Method: Standard plate); “active; positive” (Test System: Ames Salmonella typhimurium, Strain/Indicator: TA98, Metabolic Activation: Rat, Liver, S-9, Method: Standard plate); “active; positive” (Test System: Ames Salmonella typhimurium, Strain/Indicator: TA98NR, Metabolic Activation: None, Method: Standard plate); “active; positive” (Test System: Ames Salmonella typhimurium, Strain/Indicator: TA100, Metabolic Activation: None, Method: Standard plate); “active; positive” (Test System: Ames Salmonella typhimurium, Strain/Indicator: TA100, Metabolic Activation: Rat, Liver, S-9, Method: Standard plate).

In the case of `O=c1c(O)c(-c2ccc(O)c(O)c2)oc2cc(O)ccc12`, the mutagenic call is, setting by setting: (End Point: IN VITRO CHROMOSOMAL ABERRATIONS, Test System: HUMAN HL60 CELLS, Metabolic Activation: NONE) “active; positive (structural changes)”; (End Point: IN VITRO CHROMOSOMAL ABERRATIONS, Test System: HUMAN TK6 CELLS, Metabolic Activation: NONE) “active; positive (structural changes)”; (End Point: IN VITRO MICRONUCLEUS, Test System: HUMAN HL60 CELLS, Metabolic Activation: NONE) “active; positive”; (End Point: IN VITRO MICRONUCLEUS, Test System: HUMAN TK6 CELLS, Metabolic Activation: NONE) “active; positive”; (Test System: Ames Salmonella typhimurium, Strain/Indicator: TA102, Metabolic Activation: None, Method: Preincubation) “inactive; negative”; (Test System: Ames Salmonella typhimurium, Strain/Indicator: TA102, Metabolic Activation: Rat, Liver, S-9, Aroclor 1254 in 0.154 M KCl, Method: Preincubation) “inactive; negative”.
